{"source": "patent US11103448B2", "about": "“Manufacture of pharmaceutical compositions” (VECTURA LIMITED, priority 2003, dated 2021)", "assay": "Particle size distribution by Malvern particle sizer (dry powder)", "assay_type": "physicochemical", "procedure": "The particle size distributions of these powdered materials indicate both the level of size reduction obtained by the co-milling, and the level of dispersion efficiency at varied pressures. The d(50) and d(97) plots provide a further indication of this dispersibility of the powders as a function of pressure.\nParticle size distributions of the raw materials and selected formulations were determined by Malvern particle sizer, via the Scirroco dry powder disperser.\nTwelve formulations were produced from the original powder, using the Hosokawa AS50 jet mill. Either the pure drug was passed through the mill or a blend of drug with 5% w/w of a force control agent added. The mill was used with a range of parameters. Primarily, these were injector air pressure, grinding air pressure and powder feed rate."}
{"smiles": "CN1C(=O)CC(=O)N(c2ccccc2)c2cc(Cl)ccc21", "note": "[clobozam]", "values": [{"measurement": "d(50)", "setting": "clobozam after co-jet milling", "value": "about 1 μm"}, {"measurement": "d(50)", "setting": "clobozam before co-jet milling", "value": "about 2.6 μm"}]}
